Measured values reported in PubChem BioAssay AID1963448 (Molecular Pharmacology Branch, DTP, NCI, 2024).
Values belong to the compound of their own block, whether it stands above or below them.

System: 616215-338-R-J1-PDC complex spheroid growth, % test/control
Test: Anticancer human tumor 616215-338-R-J1-PDC patient-derived colon adenocarcinoma cell line growth inhibition [Asc]
Conditions: for IC50: curve of first compound; for viability, T/C: stronger effect = lower value
Experimental: Multicellular complex tumor spheroid response to apoptosis pathway targeting inhibitors Alrizomadlin, Pelcitoclax, and Dasminapant in combination with a variety of drugs and investigational agents in selected tumor cell lines
The MDM2 inhibitor alrizomadlin, the Bcl-2/Bcl-xL inhibitor pelcitoclax, and the IAPs inhibitor dasminapant were evaluated both individually and in combination with standard of care and investigational anticancer small molecules within a complex spheroid model of solid tumors. . Complex spheroids include a stromal component modeled by human endothelial cells (HUVEC) and fibroblasts modeled by human mesenchymal stem cells (MSCs). The concentration ranges selected for each drug and investigational agent were based upon clinically achievable concentrations if the clinical Cmax of the agent was known.
Compounds. The drugs and investigational agents: alrizomadlin (APG-115; NSC831270), pelcitoclax (APG-1252; NSC835773), dasminapant (APG-1387;NSC834197), TAK-243 (NSC785004), copanlisib (NSC809693), olaparib (NSC753686), talazoparib (NSC767125), cobimetinib (NSC 768068), eltanexor (KPT-8602, NSC 794443), abemaciclib (NSC 768073), sotorasib (NSC818433), adagrasib (NSC 831453), MRTX-1133 (NSC 836407), Iadademestat (ORY1001, NSC 806812), and RMC-4630 (NSC839698), were obtained from the NCI Developmental Therapeutics Program Chemical Repository. The FDA-approved anticancer drug set is available from the Developmental Therapeutics Program at https://dtp.cancer.gov/organization/dscb/obtaining/available plates.htm. […] The stock solutions were prepared in dimethyl sulfoxide (DMSO, Sigma-Aldrich, St. Louis, MO, cat. D2650) at 800-fold the tested concentration and stored at -70 degrees C prior to their use. All drugs and investigational agents were tested over a range starting from a high concentration at or near the clinical Cmax and decreasing in half-log increments. If the clinical Cmax for an agent had not been determined, the highest concentration tested was 10 microM.
The patient-derived cancer (PDC) cell lines include five colon adenocarcinomas: 186277-243-T-J2-PDC, 616215-338-R-J1-PDC, 439559-082-T-J2-PDC, 463943-066-T-J2-PDC, and 519858-162-T-J1-PDC; three pancreatic carcinomas: 323965-272-R-J2-PDC, 521955-158-R6-J3-PDC, and 521955-158-R2-J5-PDC; two uterine sarcomas: 327498-152-R-J2-PDC and 993429-296-R-J1-PDC; two rhabdomyosarcomas: 755483-174-R-J1-PDC and 772245-204-R-J1-PDC; two soft tissue sarcomas: 126254-015-R-J1-PDC and 494315-158-R-J1-PDC; two malignant fibrous histiocytomas: 317291-083-R-J1-PDC and 596521-263-R-J1-PDC; two breast carcinomas: 171881-019-R-J1-PDC and 885512-296-R-J2-PDC; and one ovarian carcinoma: 6556581-035-R-J-PDC were obtained from the NCI PDMR, (https://pdmr.cancer.gov). The established cell lines HSSY-2 synovial sarcoma (RRID:CVCL 8719), SYO-1 synovial sarcoma (RRID:CVCL_7146), MPNST malignant peripheral neural sheath tumor were obtained from the Sloan Kettering Institute. The following established cell lines were purchased from the American Type Culture Collection (ATCC, Manassas, VA), Sor the received from the NCI repository:, PANC-1 pancreatic carcinoma (CRL-1469, RRID:CVCL_0480), OVCAR-5 ovarian carcinoma (RRID:CVCL_1628), OVCAR-8 ovarian carcinoma (RRID:CVCL_1629), , MCF-7 breast carcinoma (CRL-12584, RRID:CVCL_0031), MDA-MB-231 breast carcinoma (CRL-12532, RRID:CVCL_0062), NCI-H1876 small cell lung carcinoma (CRL-5902, RRID:CVCL_1503), NCI-H510A small cell lung carcinoma (HTB-184, RRID:CVCL_1565), NCI-H1417 (CRL-5869, RRID:CVCL_1469), and NCI-H196 small cell lung carcinoma (CRL-5823, RRID:CVCL_1509). Dr. Peter Houghton (Greehey Children's Cancer Research Institute, University of Texas Health Science Center, San Antonio, TX) provided Rh-18 rhabdomyosarcoma (RRID:CVCL_1659). Pooled donor human umbilical vein endothelial cells (HUVEC, Lonza, cat. CC-2519) and human mesenchymal stem cells (hMSC, Lonza, cat. PT-2501) were purchased from Lonza (Walkersville, MD).
Cell Culture. […]

[1] = second compound 0.03 µM, first compound 0.00316 µM
[2] = second compound 0.03 µM, first compound 0.01 µM
[3] = second compound 0.03 µM, first compound 0.0316 µM
[4] = second compound 0.03 µM, first compound 0.1 µM
[5] = second compound 0.0949 µM, first compound 0.00316 µM
[6] = second compound 0.0949 µM, first compound 0.01 µM
[7] = second compound 0.0949 µM, first compound 0.0316 µM
[8] = second compound 0.0949 µM, first compound 0.1 µM
[9] = second compound 0.3 µM, first compound 0.00316 µM
[10] = second compound 0.3 µM, first compound 0.01 µM
[11] = second compound 0.3 µM, first compound 0.0316 µM
[12] = second compound 0.3 µM, first compound 0.1 µM
[13] = second compound 0.949 µM, first compound 0.00316 µM
[14] = second compound 0.949 µM, first compound 0.01 µM
[15] = second compound 0.949 µM, first compound 0.0316 µM
[16] = second compound 0.949 µM, first compound 0.1 µM
[17] = second compound 3 µM, first compound 0.00316 µM
[18] = second compound 3 µM, first compound 0.01 µM
[19] = second compound 3 µM, first compound 0.0316 µM
[20] = second compound 3 µM, first compound 0.1 µM
[21] = second compound 0.03 µM, first compound 0.316 µM
[22] = second compound 0.03 µM, first compound 1 µM
[23] = second compound 0.0949 µM, first compound 0.316 µM
[24] = second compound 0.0949 µM, first compound 1 µM
[25] = second compound 0.3 µM, first compound 0.316 µM
[26] = second compound 0.3 µM, first compound 1 µM
[27] = second compound 0.949 µM, first compound 0.316 µM
[28] = second compound 0.949 µM, first compound 1 µM
[29] = second compound 3 µM, first compound 0.316 µM
[30] = second compound 3 µM, first compound 1 µM
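Also: spheroids exposed to agents for seven days before readout.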
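For viability, T/C in this document: 100% = DMSO vehicle control viability.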

IC50 (second compound 0.03 µM): > 100 nM
IC50 (second compound 0.0949 µM): > 100 nM
IC50 (second compound 0.3 µM): > 100 nM
IC50 (second compound 0.949 µM): > 100 nM
IC50 (second compound 3 µM): 3.14 nM
SMILES: Cn1ncnc1[C@H]1c2n[nH]c(=O)c3cc(F)cc(c23)N[C@@H]1c1ccc(F)cc1 + CCN1C(C(=O)NC23CCC(C(=O)O)(CC2)CC3)C(c2cccc(Cl)c2F)C2(C(=O)Nc3cc(Cl)ccc32)C12CCCCC2
viability, T/C (second compound 0.03 µM, first compound 0.000316 µM): 107%
viability, T/C (second compound 0.03 µM, first compound 0.001 µM): 103%
viability, T/C [1]: 97.8%
viability, T/C [2]: 105%
viability, T/C [3]: 92.3%
viability, T/C [4]: 85.5%
viability, T/C (second compound 0.0949 µM, first compound 0.000316 µM): 99.2%
viability, T/C (second compound 0.0949 µM, first compound 0.001 µM): 95.5%
viability, T/C [5]: 89%
viability, T/C [6]: 85%
viability, T/C [7]: 81.5%
viability, T/C [8]: 75.6%
viability, T/C (second compound 0.3 µM, first compound 0.000316 µM): 69.6%
viability, T/C (second compound 0.3 µM, first compound 0.001 µM): 70.9%
viability, T/C [9]: 67.6%
viability, T/C [10]: 56.7%
viability, T/C [11]: 58.9%
viability, T/C [12]: 61.8%
viability, T/C (second compound 0.949 µM, first compound 0.000316 µM): 65.3%
viability, T/C (second compound 0.949 µM, first compound 0.001 µM): 66.5%
viability, T/C [13]: 67.4%
viability, T/C [14]: 56.8%
viability, T/C [15]: 57.2%
viability, T/C [16]: 61.3%
viability, T/C (second compound 3 µM, first compound 0.000316 µM): 50.2%
viability, T/C (second compound 3 µM, first compound 0.001 µM): 55.5%
viability, T/C [17]: 49.9%
viability, T/C [18]: 46.1%
viability, T/C [19]: 47.5%
viability, T/C [20]: 48.3%

IC50 (second compound 0.03 µM): > 10000 nM
IC50 (second compound 0.0949 µM): > 10000 nM
IC50 (second compound 0.3 µM): > 10000 nM
IC50 (second compound 0.949 µM): > 10000 nM
IC50 (second compound 3 µM): > 10000 nM
SMILES: O=C(c1cc(Cc2n[nH]c(=O)c3ccccc23)ccc1F)N1CCN(C(=O)C2CC2)CC1 + CCN1C(C(=O)NC23CCC(C(=O)O)(CC2)CC3)C(c2cccc(Cl)c2F)C2(C(=O)Nc3cc(Cl)ccc32)C12CCCCC2
viability, T/C [3]: 101%
viability, T/C [4]: 99.1%
viability, T/C [21]: 99.4%
viability, T/C [22]: 99.8%
viability, T/C (second compound 0.03 µM, first compound 3.16 µM): 94.1%
viability, T/C (second compound 0.03 µM, first compound 10 µM): 77.6%
viability, T/C [7]: 99%
viability, T/C [8]: 100%
viability, T/C [23]: 97.8%
viability, T/C [24]: 92.2%
viability, T/C (second compound 0.0949 µM, first compound 3.16 µM): 81.2%
viability, T/C (second compound 0.0949 µM, first compound 10 µM): 67.5%
viability, T/C [11]: 73.3%
viability, T/C [12]: 72.6%
viability, T/C [25]: 78%
viability, T/C [26]: 71.8%
viability, T/C (second compound 0.3 µM, first compound 3.16 µM): 61.4%
viability, T/C (second compound 0.3 µM, first compound 10 µM): 65.2%
viability, T/C [15]: 74.7%
viability, T/C [16]: 80.8%
viability, T/C [27]: 72.4%
viability, T/C [28]: 68.5%
viability, T/C (second compound 0.949 µM, first compound 3.16 µM): 67%
viability, T/C (second compound 0.949 µM, first compound 10 µM): 55.7%
viability, T/C [19]: 61.4%
viability, T/C [20]: 62.5%
viability, T/C [29]: 60.5%
viability, T/C [30]: 60.1%
viability, T/C (second compound 3 µM, first compound 3.16 µM): 51.8%
viability, T/C (second compound 3 µM, first compound 10 µM): 48.8%

IC50 (second compound 0.03 µM): 70 nM
IC50 (second compound 0.0949 µM): 52.9 nM
IC50 (second compound 0.3 µM): 16.4 nM
IC50 (second compound 0.949 µM): 5.81 nM
IC50 (second compound 3 µM): < 3.16 nM
SMILES: O=C(c1ccc(F)c(F)c1Nc1ccc(I)cc1F)N1CC(O)([C@@H]2CCCCN2)C1 + CCN1C(C(=O)NC23CCC(C(=O)O)(CC2)CC3)C(c2cccc(Cl)c2F)C2(C(=O)Nc3cc(Cl)ccc32)C12CCCCC2
viability, T/C [1]: 89.9%
viability, T/C [2]: 88.6%
viability, T/C [3]: 90.1%
viability, T/C [4]: 32.3%
viability, T/C [21]: 0.26%
viability, T/C [22]: 0.38%
viability, T/C [5]: 93.8%
viability, T/C [6]: 93.6%
viability, T/C [7]: 74.5%
viability, T/C [8]: 19.6%
viability, T/C [23]: 0.23%
viability, T/C [24]: 0.37%
viability, T/C [9]: 59.8%
viability, T/C [10]: 57.7%
viability, T/C [11]: 38.8%
viability, T/C [12]: 3%
viability, T/C [25]: 1.18%
viability, T/C [26]: 1.93%
viability, T/C [13]: 55.5%
viability, T/C [14]: 44.2%
viability, T/C [15]: 23.3%
viability, T/C [16]: 2.29%
viability, T/C [27]: 1.21%
viability, T/C [28]: 3.73%
viability, T/C [17]: 40.3%
viability, T/C [18]: 36%
viability, T/C [19]: 3.79%
viability, T/C [20]: 0.28%
viability, T/C [29]: 0.56%
viability, T/C [30]: 2.69%
